CCc1cccc2c3c([nH]c12)C(CC)(CC(=O)O)OCC3 (stereo unspecified)
solubility (mole fraction)
Settings | 278.15 K | 283.15 K | 288.15 K | 293.15 K | 298.15 K | 303.15 K | 308.15 K | 313.15 K | 318.15 K | 323.15 K
in acetone | 0.0935 | 0.101 | 0.109 | 0.117 | 0.127 | 0.136 | 0.147 | 0.157 | 0.168 | 0.178
in dichloromethane | 0.00979 | 0.0124 | 0.0155 | 0.019 | 0.0229 | 0.0271 | – | – | – | –
in isobutanol | 0.0224 | 0.0265 | 0.0316 | 0.0382 | 0.0476 | 0.0594 | 0.0707 | 0.086 | 0.104 | 0.123
in isobutyl acetate | 0.0428 | 0.0475 | 0.0529 | 0.0584 | 0.0649 | 0.07 | 0.0774 | 0.0861 | 0.0959 | 0.108
in isopentyl acetate | 0.0413 | 0.0457 | 0.0509 | 0.0563 | 0.0629 | 0.068 | 0.0758 | 0.084 | 0.0944 | 0.105
in isopropanol | 0.0267 | 0.0307 | 0.0363 | 0.0444 | 0.0547 | 0.0669 | 0.078 | 0.0907 | 0.109 | 0.127
in methyl acetate | 0.0464 | 0.0519 | 0.0578 | 0.0638 | 0.0687 | 0.0769 | 0.0834 | 0.0921 | 0.101 | 0.111
in n-butanol | 0.0371 | 0.0422 | 0.0485 | 0.0573 | 0.0675 | 0.078 | 0.0873 | 0.0994 | 0.117 | 0.135
in n-butyl acetate | 0.0455 | 0.0507 | 0.0563 | 0.0627 | 0.0682 | 0.0748 | 0.0825 | 0.0915 | 0.101 | 0.111
in n-pentyl acetate | 0.0453 | 0.0503 | 0.0558 | 0.0621 | 0.0666 | 0.0738 | 0.0803 | 0.0892 | 0.0983 | 0.108
in n-propanol | 0.0342 | 0.0391 | 0.0452 | 0.0548 | 0.0648 | 0.0751 | 0.0849 | 0.0969 | 0.114 | 0.131
in toluene | 0.00117 | 0.00147 | 0.0019 | 0.0024 | 0.00316 | 0.00394 | 0.00501 | 0.0065 | 0.00838 | 0.0108

Reference: BigSolDB 2.1
